Structures are written as SMILES.

This experiment deals with T1, human CB2R (Homo sapiens, UniProt P34972).
T1 construct: host or cells: CHO cells
T1 sequence (P34972 whole entry): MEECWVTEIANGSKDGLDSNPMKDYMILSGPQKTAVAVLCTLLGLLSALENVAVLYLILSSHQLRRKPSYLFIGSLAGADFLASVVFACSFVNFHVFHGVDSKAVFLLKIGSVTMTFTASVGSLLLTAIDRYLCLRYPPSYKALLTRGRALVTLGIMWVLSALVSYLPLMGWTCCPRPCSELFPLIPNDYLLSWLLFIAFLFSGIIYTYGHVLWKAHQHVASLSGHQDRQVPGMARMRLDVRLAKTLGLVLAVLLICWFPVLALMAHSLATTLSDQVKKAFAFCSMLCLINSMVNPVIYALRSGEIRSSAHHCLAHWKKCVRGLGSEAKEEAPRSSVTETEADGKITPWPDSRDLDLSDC
Kind of experiment: CB2R mediated modulation of cAMP synthesis. It is filed as cell-based. Particulars: found through the use of the above described assays (binding and cAMP); CHO cells expressing human CB2R, forskolin-stimulated cAMP. The essentials:
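CHO cells expressing human CB2R were treated for 30 min at 37 °C with compound in buffer containing 1 mM IBMX, 0.25% BSA and 10 uM forskolin. cAMP was measured after lysis. EC50 is the concentration giving 50% inhibition of forskolin-stimulated cAMP, scaled to the level set by 1 uM CP55940, fitted by four-parameter logistic.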
On to `CCc1sc(NC(=O)C(C)(C)S(=O)(=O)c2ccccc2)nc1-c1ccccc1` [2-Benzenesulfonyl-N-(5-ethyl-4-phenyl-thiazol-2-yl)-2-methyl-propionamide], for which the agonistic activity result was “agonistic activity”.
Take `Cc1nc(NC(=O)C(C)(C)S(=O)(=O)c2ccc(Cl)cc2)sc1C(C)(C)C` [N-(5-tert-Butyl-4-methyl-thiazol-2-yl)-2-(4-chloro-benzenesulfonyl)-2-methyl-propionamide]: the agonistic activity entry is “agonistic activity”.
In the case of `CC(C)(C)c1cc(NC(=O)C2(S(=O)(=O)c3ccc(Cl)cc3)CCC2)no1` [1-(4-Chloro-benzenesulfonyl)-cyclobutanecarboxylic acid (5-tert-butyl-isoxazol-3-yl)-amide] it was “agonistic activity”.
The value for `Cc1cccc(NC(=O)C(C)(C)S(=O)(=O)c2ccc(Cl)cc2)n1` [2-(4-Chloro-benzenesulfonyl)-2-methyl-N-(6-methyl-pyridin-2-yl)-propionamide] was “agonistic activity”; that for `Cc1nc(NC(=O)C2(S(=O)(=O)c3ccc(Cl)cc3)CC2)sc1C(C)(C)C` [1-(4-Chloro-benzenesulfonyl)-cyclopropanecarboxylic acid (5-tert-butyl-4-methyl-thiazol-2-yl)-amide] was “agonistic activity”.
Turning to `CC(C)(C(=O)Nc1nc2ccccc2o1)S(=O)(=O)c1ccc(Cl)cc1F` [N-1,3-benzoxazol-2-yl-2-[(4-chloro-2-fluorophenyl)sulfonyl]-2-methylpropanamide], the agonistic activity result is reported as “agonistic activity”.
Consider `CC(C)(C(=O)Nc1ccccn1)S(=O)(=O)c1ccc(Cl)cc1` [2-(4-Chloro-benzenesulfonyl)-2-methyl-N-pyridin-2-yl-propionamide], for which the agonistic activity result is recorded as “agonistic activity”.
`CCc1sc(NC(=O)C(C)(C)S(=O)(=O)c2ccc(OC)cc2)nc1-c1ccccc1` [N-(5-ethyl-4-phenyl-1,3-thiazol-2-yl)-2-[(4-methoxyphenyl)sulfonyl]-2-methylpropanamide]: the agonistic activity entry was “agonistic activity”.
For the compound `CC(C)(C(=O)Nc1nsc(-c2ccccc2)n1)S(=O)(=O)c1ccc(C(F)(F)F)nc1` [2-methyl-N-(5-phenyl-1,2,4-thiadiazol-3-yl)-2-{[6-(trifluoromethyl)pyridin-3-yl]sulfonyl}propanamide], the agonistic activity result is given as “agonistic activity”.
In the case of `CC(C)(C)Cc1cc(NC(=O)C(C)(C)S(=O)(=O)c2ccc(Cl)cc2)on1` it was “agonistic activity”; in that of `CC(C)(C(=O)Nc1cccnc1)S(=O)(=O)c1ccc(Cl)cc1` [2-(4-Chloro-benzenesulfonyl)-2-methyl-N-pyridin-3-yl-propionamide], “agonistic activity”; in that of `Cc1sc(NC(=O)C(C)(C)S(=O)(=O)c2ccc(Cl)cc2)nc1C(C)(C)C` [N-(4-tert-Butyl-5-methyl-thiazol-2-yl)-2-(4-chloro-benzenesulfonyl)-2-methyl-propionamide], “agonistic activity”.
In the case of `Cn1nc(C(C)(C)C)cc1NC(=O)C1(S(=O)(=O)c2ccc(Cl)cc2)CC1` [1-(4-Chloro-benzenesulfonyl)-cyclopropanecarboxylic acid (5-tert-butyl-2-methyl-2H-pyrazol-3-yl)-amide] it was “agonistic activity”; in that of `CC(C)(C(=O)Nc1cccc(C(F)(F)F)n1)S(=O)(=O)c1ccc(C(F)(F)F)nc1` [2-methyl-N-[6-(trifluoromethyl)pyridin-2-yl]-2-{[6-(trifluoromethyl)pyridin-3-yl]sulfonyl}propanamide], “agonistic activity”; in that of `CC(C)(C(=O)Nc1ccc(C(F)(F)F)cn1)S(=O)(=O)c1cccc(F)c1` [2-(3-Fluoro-benzenesulfonyl)-2-methyl-N-(5-trifluoromethyl-pyridin-2-yl)-propionamide], “agonistic activity”.
The value for `COc1ccc(S(=O)(=O)C(C)(C)C(=O)Nc2ccc(C(F)(F)F)cn2)cc1F` [2-(3-Fluoro-4-methoxy-benzenesulfonyl)-2-methyl-N-(5-trifluoromethyl-pyridin-2-yl)-propionamide] was “agonistic activity”; that for `CC(C)(C)c1csc(NC(=O)C(C)(C)S(=O)(=O)c2ccccc2)n1` [2-Benzenesulfonyl-N-(4-tert-butyl-thiazol-2-yl)-2-methyl-propionamide] was “agonistic activity”.
For `CC(C)(C(=O)Nc1cccc(C(F)(F)F)n1)S(=O)(=O)c1ccc(F)cc1` [2-(4-Fluoro-benzenesulfonyl)-2-methyl-N-(6-trifluoromethyl-pyridin-2-yl)-propionamide], the agonistic activity result was “agonistic activity”.
In the case of `CC(C)(C(=O)Nc1cccnc1)S(=O)(=O)c1ccc(C(F)(F)F)cc1` [2-Methyl-N-pyridin-3-yl-2-(4-trifluoromethyl-benzenesulfonyl)-propionamide] it was “agonistic activity”; in that of `CC(C)(C(=O)Nc1ccc(C(F)(F)F)cn1)S(=O)(=O)c1ccccc1` [2-Benzenesulfonyl-2-methyl-N-(5-trifluoromethyl-pyridin-2-yl)-propionamide], “agonistic activity”.
In the case of `CC(C)(C(=O)Nc1cccc(C(F)(F)F)n1)S(=O)(=O)c1ccc(Cl)cc1F` [2-(4-Chloro-2-fluoro-benzenesulfonyl)-2-methyl-N-(6-trifluoromethyl-pyridin-2-yl)-propionamide] it was “agonistic activity”; in that of `CC(C)(C(=O)Nc1ncc(-c2ccc(F)cc2)s1)S(=O)(=O)c1ccc(F)cc1` [2-(4-Fluoro-benzenesulfonyl)-N-[5-(4-fluoro-phenyl)-thiazol-2-yl]-2-methyl-propionamide], “agonistic activity”.
In the case of `Cn1nc(C(C)(C)C)cc1NC(=O)C(C)(C)S(=O)(=O)c1ccc(Cl)nc1` [N-(5-tert-Butyl-2-methyl-2H-pyrazol-3-yl)-2-(6-chloro-pyridine-3-sulfonyl)-2-methyl-propionamide] it was “agonistic activity”; in that of `CC(C)(C(=O)Nc1noc2ccccc12)S(=O)(=O)c1ccc(Cl)cc1` [N-Benzo[d]isoxazol-3-yl-2-(4-chloro-benzenesulfonyl)-2-methyl-propionamide], “agonistic activity”.
For `CC(C)(C(=O)Nc1nsc(-c2ccccc2)n1)S(=O)(=O)c1ccc(Cl)cc1F` [2-[(4-chloro-2-fluorophenyl)sulfonyl]-2-methyl-N-(5-phenyl-1,2,4-thiadiazol-3-yl)propanamide], the agonistic activity result was “agonistic activity”.
The value for `CCC(C)c1ccc(NC(=O)C(C)(C)S(=O)(=O)c2ccc(Cl)cc2)nc1` (stereo not shown) [N-(5-sec-Butyl-pyridin-2-yl)-2-(4-chloro-benzenesulfonyl)-2-methyl-propionamide] was “agonistic activity”; that for `CC(C)(C(=O)Nc1nc(C(F)(F)F)cs1)S(=O)(=O)c1ccc(Cl)cc1` [2-(4-Chloro-benzenesulfonyl)-2-methyl-N-(4-trifluoromethyl-thiazol-2-yl)-propionamide] was “agonistic activity”; that for `CC(C)(C(=O)Nc1ncc(-c2ccccc2)s1)S(=O)(=O)c1ccc(Cl)cc1` [2-(4-Chloro-benzenesulfonyl)-2-methyl-N-(5-phenyl-thiazol-2-yl)-propionamide] was “agonistic activity”.
In the case of `COc1ccc(S(=O)(=O)C(C)(C)C(=O)Nc2nc(C(F)(F)F)cs2)cc1` [2-(4-Methoxy-benzenesulfonyl)-2-methyl-N-(4-trifluoromethyl-thiazol-2-yl)-propionamide] it was “agonistic activity”; in that of `CC(C)(C)c1cc(NC(=O)C(C)(C)S(=O)(=O)c2ccc(C(F)(F)F)nc2)[nH]n1` [N-(5-tert-Butyl-2H-pyrazol-3-yl)-2-methyl-2-(6-trifluoromethyl-pyridine-3-sulfonyl)-propionamide], “agonistic activity”.
On to `CC(C)(C)c1csc(NC(=O)C(C)(C)S(=O)(=O)c2ccc(N3CCC3)nc2)n1` [2-(6-Azetidin-1-yl-pyridine-3-sulfonyl)-N-(4-tert-butyl-thiazol-2-yl)-2-methyl-propionamide], for which the agonistic activity entry was “agonistic activity”.
For `CC(C)(C)c1cc(NC(=O)C(C)(C)S(=O)(=O)c2ccc(C(F)(F)F)cn2)no1` [N-(5-tert-Butyl-isoxazol-3-yl)-2-methyl-2-(5-trifluoromethyl-pyridine-2-sulfonyl)-propionamide], the agonistic activity entry was “agonistic activity”.
The value for `CC(C)(C(=O)Nc1cccc(C(F)(F)F)n1)S(=O)(=O)c1ccccc1` [2-Benzenesulfonyl-2-methyl-N-(6-trifluoromethyl-pyridin-2-yl)-propionamide] was “agonistic activity”; that for `CC(C)(C)c1csc(NC(=O)C(C)(C)S(=O)(=O)c2cc(F)ccc2F)n1` [N-(4-tert-Butyl-thiazol-2-yl)-2-(2,5-difluoro-benzenesulfonyl)-2-methyl-propionamide] was “agonistic activity”.
For `CC(C)(C(=O)Nc1nnc(-c2ccccc2)s1)S(=O)(=O)c1ccc(Cl)cc1` [2-(4-Chloro-benzenesulfonyl)-2-methyl-N-(5-phenyl-[1,3,4]thiadiazol-2-yl)-propionamide], the agonistic activity result is recorded as “agonistic activity”.
In the case of `CC(C)(C(=O)Nc1nc2c(s1)CCCC2)S(=O)(=O)c1ccc(Cl)cc1` [2-(4-Chloro-benzenesulfonyl)-2-methyl-N-(4,5,6,7-tetrahydro-benzothiazol-2-yl)-propionamide] it was “agonistic activity”; in that of `CCc1c(C)noc1NC(=O)C(C)(C)S(=O)(=O)c1ccc(Cl)cc1` [2-(4-Chloro-benzenesulfonyl)-N-(4-ethyl-3-methyl-isoxazol-5-yl)-2-methyl-propionamide], “agonistic activity”.
